For orientation: MIC means the least concentration at which growth counts as inhibited.

Converted amounts (≈) assume the structure as drawn. Like-named read-outs stand apart in the source and are kept apart here.

Format in all cases: cell-based
Test [1] relates to E. coli NIHJ-JC2. The test is described as follows: minimum inhibitory concentration (MIC), E. coli NIHJ-JC2. Conditions: Escherichia coli, NIHJJC2.
The test system of test [2] is Proteus vulgaris OX19. The test can be described thus: minimum inhibitory concentration (MIC), Proteus vulgaris OX19.
In test [3] the test system is Strept. agalactiae 1020. The test can be described thus: minimum inhibitory concentration (MIC), Strept. agalactiae 1020. Conditions: Streptococcus agalactiae.
Test [4] concerns Kleb. pneumoniae ATCC10031. The test is described as follows: minimum inhibitory concentration (MIC), Kleb. pneumoniae ATCC10031. As to conditions: Klebsiella pneumoniae.
The subject of test [5] is Strept. faecalis 1501. The test can be described thus: minimum inhibitory concentration (MIC), Strept. faecalis 1501. As to conditions: Enterococcus faecalis.
Test [6] has as its system Staph epidermidis ap-al-l. The test is described as follows: minimum inhibitory concentration (MIC), Staph epidermidis.
The subject of test [7] is Serratia marcescens. The test is described as follows: minimum inhibitory concentration (MIC), Serratia marcescens.
Test [8] concerns Staph. aureus ATCC6538P. The test can be described thus: minimum inhibitory concentration (MIC), Staph. aureus ATCC6538P. Conditions: Staphylococcus aureus.
Test [9] concerns Staph. aureus MS353. The test can be described thus: minimum inhibitory concentration (MIC), Staph. aureus MS353. Conditions: Staphylococcus aureus.
For test [10], the system named is Strept. pyogenes N.Y.5. The test is described as follows: minimum inhibitory concentration (MIC), Strept. pyogenes N.Y.5. Conditions: Streptococcus pyogenes. From the text:
In Table 1, the abbreviations have the following meanings: […]

Test [11] relates to Strept. pyogenes 1022. The test is described as follows: minimum inhibitory concentration (MIC), Strept. pyogenes 1022*. As to conditions: Streptococcus pyogenes, macrolide-antibiotics resistant. From the text: (§1) In Table 1, the abbreviations have the following meanings:
(§2) The test organisms were macrolide-antibiotics resistant A-group stains (clinical isolates of strains resistant to erythromycin, olenadomycin and 16-membered macrolide antibiotics).

Test [12] concerns Staph. aureus MS353C36. The test can be described thus: minimum inhibitory concentration (MIC), Staph. aureus MS353C36*. Conditions: Staphylococcus aureus, macrolide-antibiotics resistant.
From the text: as §1, §2

[13] abbreviates: Staph epidermidis ap-al-l, read-out: MIC.

With `CCC1OC(=O)CC(O)C(C)C(OC2OC(C)C(OC(C)=O)C(N(C)C)C2OC(C)=O)C(CC(OC)OC)CC(C)C(=O)C=CC(C)=CC1CO` (stereo not drawn) [A, 2',4'-di-O-acetyl-O-mycaminosyltylonolide dimethylacetal], the MIC in test [1] is 25 µg/mL (≈ 34.3 µM); in [2] it was 6.3 µg/mL (≈ 8.66 µM); in [3] it was at most 0.05 µg/mL; in [4], 1.6 µg/mL (≈ 2.2 µM); in [5], 0.2 µg/mL (≈ 0.275 µM); in [6] (setting [13]), 0.1 µg/mL (≈ 0.137 µM). For the same compound, the MIC in test [7] is 12.5 µg/mL (≈ 17.2 µM); in test [8], 0.2 µg/mL (≈ 0.275 µM); in test [9], 0.2 µg/mL (≈ 0.275 µM); in test [10] it was at most 0.05 µg/mL; in test [11], over 100 µg/mL.

Take `CCC1CC=C(C)C=CC(=O)C(C)CC(CC=O)C(OC2OC(C)C(O)C(N(C)C)C2O)C(C)C(O)CC(=O)O1` (stereo not drawn) [C, 14-de(hydroxymethyl)-O-mycaminosyltylonolide]: the MIC is at most 0.05 µg/mL in test [3]; 0.1 µg/mL (≈ 0.176 µM) in test [5]; at most 0.05 µg/mL in test [6] (setting [13]); at most 0.05 µg/mL in test [12]; at most 0.05 µg/mL in test [8]; at most 0.05 µg/mL in test [9]. Also, the MIC is at most 0.05 µg/mL in test [10] and over 100 µg/mL in [11].

`CCC1OC(=O)CC(O)C(C)C(OC2OC(C)CC(N(C)C)C2OC(C)=O)C(CC=O)CC(C)C(=O)C=CC(C)=CC1CO` (stereo not drawn) [D, 2'-O-acetyl-4'-deoxy-O-mycaminosyltylonolide]: the MIC in [3] was at most 0.05 µg/mL; in test [5], 0.2 µg/mL (≈ 0.321 µM); in test [6] (setting [13]) it was at most 0.05 µg/mL; in test [12] it was 0.2 µg/mL (≈ 0.321 µM); in [8], 0.2 µg/mL (≈ 0.321 µM); in test [9], 0.2 µg/mL (≈ 0.321 µM). The MIC in test [10] was at most 0.05 µg/mL; in test [11], over 100 µg/mL.

In the case of `CCC1OC(=O)CC(O)C(C)C(OC2OC(C)CC(N(C)C)C2OC(C)=O)C(CC(OC)OC)CC(C)C(=O)C=CC(C)=CC1CO` (stereo not drawn) [E, 2'-O-acetyl-4'-deoxy-O-mycaminosyltylonolide dimethylacetal], the MIC in test [3] is at most 0.05 µg/mL; in test [5] it was at most 0.05 µg/mL; in test [6] (setting [13]) it was at most 0.05 µg/mL; in test [12] it was 0.1 µg/mL (≈ 0.149 µM); in test [8], 0.1 µg/mL (≈ 0.149 µM); in test [9] it was 0.1 µg/mL (≈ 0.149 µM). Also, the MIC was at most 0.05 µg/mL in [10] and over 100 µg/mL in [11].

In the case of `CC[C@H]1OC(=O)[C@H](C)[C@@H](O[C@H]2C[C@@](C)(OC)[C@@H](O)[C@H](C)O2)[C@H](C)[C@@H](O[C@@H]2O[C@H](C)C[C@H](N(C)C)[C@H]2O)[C@](C)(O)C[C@@H](C)C(=O)[C@H](C)[C@@H](O)[C@]1(C)O` [EM, erythromycin, reference compound], the MIC in [3] was at most 0.05 µg/mL; in [6], 0.1 µg/mL (≈ 0.136 µM); in test [12] it was over 100 µg/mL; in [8], 0.2 µg/mL (≈ 0.273 µM); in test [9] it was 0.2 µg/mL (≈ 0.273 µM); in test [10], at most 0.05 µg/mL. Further, in test [11], the MIC was over 100 µg/mL.

As for `CCC1CC=C(C)C=CC(=O)C(C)CC(CC=O)C(OC2OC(C)CC(N(C)C)C2O)C(C)C(O)CC(=O)O1` (stereo not drawn) [F, 14-de(hydroxymethyl)-4'-deoxy-O-mycaminosyltylonolide], the MIC in test [3] was at most 0.05 µg/mL; in test [5] it was 0.2 µg/mL (≈ 0.363 µM); in test [6] (setting [13]), at most 0.05 µg/mL; in test [12], 0.2 µg/mL (≈ 0.363 µM); in test [8] it was 0.1 µg/mL (≈ 0.181 µM); in test [9] it was 0.1 µg/mL (≈ 0.181 µM). The MIC is at most 0.05 µg/mL in test [10] and over 100 µg/mL in test [11].

In the case of `CCC1OC(=O)CC(O)C(C)C(OC2OC(C)C(O)C(N(C)C)C2O)C(CC=O)CC(C)C(=O)C=CC(C)=CC1C(=O)OC(C)C` (stereo not drawn) [G, 14-isopropyloxycarbonyl-14-de(hydroxymethyl)-O-mycaminosyltylonolide], the MIC is at most 0.05 µg/mL in test [3]; 0.2 µg/mL (≈ 0.306 µM) in [5]; 0.2 µg/mL (≈ 0.306 µM) in [6] (setting [13]); 0.8 µg/mL (≈ 1.22 µM) in [12]; 0.4 µg/mL (≈ 0.612 µM) in [8]; 0.4 µg/mL (≈ 0.612 µM) in test [9]. For the same compound, the MIC in [10] is at most 0.05 µg/mL; in [11] it was over 100 µg/mL.

Turning to `CCOC(=O)C1C=C(C)C=CC(=O)C(C)CC(CC=O)C(OC2OC(C)C(O)C(N(C)C)C2O)C(C)C(O)CC(=O)OC1CC` (stereo not drawn) [H, 14-ethyloxycarbonyl-14-de(hydroxymethyl)-O-mycaminosyltylonolide], the MIC in test [3] was at most 0.05 µg/mL; in test [5], at most 0.05 µg/mL; in test [6] (setting [13]) it was 0.1 µg/mL (≈ 0.156 µM); in test [12], 0.4 µg/mL (≈ 0.625 µM); in test [8], 0.2 µg/mL (≈ 0.313 µM); in test [9] it was 0.2 µg/mL (≈ 0.313 µM). Further, the values for the MIC in test [10] and in [11] were at most 0.05 µg/mL and over 100 µg/mL, respectively.

As to `CC[C@H]1OC(=O)C[C@@H](O)[C@H](C)[C@@H](O[C@@H]2O[C@H](C)[C@@H](O[C@H]3C[C@@](C)(O)[C@@H](O)[C@H](C)O3)[C@H](N(C)C)[C@H]2O)[C@@H](CC=O)C[C@@H](C)C(=O)/C=C/C(C)=C/[C@@H]1CO[C@@H]1O[C@H](C)[C@@H](O)[C@@H](OC)[C@H]1OC` [TS, tylosin, reference compound], the MIC in test [1] is over 100 µg/mL; in [3], 0.4 µg/mL (≈ 0.437 µM); in [5], 1.6 µg/mL (≈ 1.75 µM); in test [6], 0.4 µg/mL (≈ 0.437 µM); in [12] it was over 100 µg/mL; in test [11], over 100 µg/mL.

Values taken from patent publication US4579940A, “14-de(hydroxymethyl)-mycaminosyltylonolide derivatives” (Toyo Jozo Kabushiki Kaisha, priority 1983, dated 1986).
